This test deals with PKBα (Homo sapiens, UniProt P31749). As to the kind of experiment: PKB kinase assay (P33-labeled ATP, peptide substrate, filter plate). Type of test: biochemical. The note with it: PKBα enzyme (full length or kinase domain with pleckstrin domain deleted). An excerpt:
The kinase assay for evaluating PKB activity comprises active PKB enzymes, a PKB specific substrate, and P^33-labeled ATP. […] The phosphorylated substrate was captured by a phosphocellulose membrane filter plate (MLLIPORE) and measured by a Wallac Microbeta liquid scintillation counter (Perkin Elmer).

SMILES strings stand for the structures. Structures can show the parent of a compound that is named as a salt.

Chain of PKBα (P31749 118-480 limits assumed): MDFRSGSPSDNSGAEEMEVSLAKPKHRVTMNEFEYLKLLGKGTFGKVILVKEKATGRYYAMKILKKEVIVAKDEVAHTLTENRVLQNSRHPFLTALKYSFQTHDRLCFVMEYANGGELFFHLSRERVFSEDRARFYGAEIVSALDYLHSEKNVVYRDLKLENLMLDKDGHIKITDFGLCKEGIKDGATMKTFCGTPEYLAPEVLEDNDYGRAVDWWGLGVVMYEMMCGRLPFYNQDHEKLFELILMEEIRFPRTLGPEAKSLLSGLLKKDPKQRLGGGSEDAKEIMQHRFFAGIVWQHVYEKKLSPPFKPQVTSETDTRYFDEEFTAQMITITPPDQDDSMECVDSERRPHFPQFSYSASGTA

What is called IC50 is the concentration at which inhibition is half-maximal. Regarding `CC#Cc1nc(NC[C@@H](N)Cc2ccc(C(F)(F)F)cc2)sc1-c1ccc2c(c1)CC(=O)N2` [Example 152, 5-(2-((S)-2-amino-3-(4-(trifluoromethyl)phenyl)propylamino)-4-(prop-1-ynyl)thiazol-5-yl)indolin-2-one], the IC50 is under 0.05 µM.
On to `N[C@H](CNc1ncc(-c2cnc3c(c2)CC(=O)N3)s1)Cc1ccc(C(F)(F)F)cc1` [Example 226, 5-(2-((S)-2-amino-3-(4-(trifluoromethyl)phenyl)propylamino)thiazol-5-yl)-1H-pyrrolo[2,3-b]pyridin-2(3H)-one], for which the IC50 is under 0.05 µM.
Under `NC(CNc1ncc(-c2ccc3[nH]c(=O)oc3c2)s1)Cc1ccc(O)c(F)c1` (stereo not drawn) [Example 216, 6-(2-(2-Amino-3-(3-fluoro-4-hydroxyphenyl)propylamino)thiazol-5-yl)benzo[d]oxazol-2(3H)-one] stands 0.05 to 1 µM; under `COCc1nc(NC[C@@H](N)Cc2ccc(Cl)cc2)sc1-c1nc2ccncc2s1` [Example 19, N—((S)-2-amino-3-(4-chlorophenyl)propyl)-4-(methoxymethyl)-5-(thiazolo[5,4-c]pyridin-2-yl)thiazol-2-amine], under 0.05 µM.
Under `C[C@@H](c1ccc(C(F)(F)F)cc1)[C@H](N)CNc1ncc(-c2ccc3c(c2F)CC(=O)N3)s1` [Example 225, 5-(2-((2S,3S)-2-amino-3-(4-(trifluoromethyl)phenyl)butylamino)thiazol-5-yl)-4-fluoroindolin-2-one] stands under 0.05 µM.
Under `C[C@H](Nc1ncc(-c2ccc3c(c2)CC(=O)N3)s1)[C@@H](N)Cc1ccc(C(F)(F)F)cc1` [Example 234, 5-(2-((2S,3S)-3-amino-4-(4-(trifluoromethyl)phenyl)butan-2-ylamino)thiazol-5-yl)indolin-2-one] stands 1 to 10 µM; under `N[C@H](CNc1nc(C#CC2(O)CCCC2)c(-c2ccc3cnccc3c2)s1)Cc1ccc(C(F)(F)F)cc1` [Example 148, 1-(2-(2-((S)-2-amino-3-(4-(trifluoromethyl)phenyl)propylamino)-5-(isoquinolin-6-yl)thiazol-4-yl)ethynyl)cyclopentanol], 0.05 to 1 µM; under `N[C@H](CNc1nc(-c2cccc(F)c2)c(-c2ccc3cnccc3c2)s1)Cc1ccc(C(F)(F)F)cc1` [Example 103, N—((S)-2-amino-3-(4-(trifluoromethyl)phenyl)propyl)-4-(3-fluorophenyl)-5-(isoquinolin-6-yl)thiazol-2-amine], 0.05 to 1 µM.
Take `COc1ccc(C[C@H](N)CNc2ncc(-c3nc4ccncc4s3)s2)cc1` [Example 98, N—((S)-2-Amino-3-(4-methoxyphenyl)propyl)-5-(thiazolo[5,4-c]pyridin-2-yl)thiazol-2-amine]: the IC50 fell in the range of 0.05 to 1 µM.
To `N[C@H](CNc1ncc(-c2ccc3c(c2)CNC3=O)s1)Cc1ccc(C(F)(F)F)cc1` [Example 240, 5-(2-((S)-2-amino-3-(4-(trifluoromethyl)phenyl)propylamino)thiazol-5-yl)isoindolin-1-one] belongs 0.05 to 1 µM.
Under `CC(C)(O)C#Cc1nc(NC[C@@H](N)Cc2ccc(C(F)(F)F)cc2)sc1-c1ccc2cnccc2c1` [Example 79, 4-(2-((S)-2-Amino-3-(4-(trifluoromethyl)phenyl)propylamino)-5-(isoquinolin-6-yl)thiazole-4-yl)-2-methylbut-3-yn-2-ol] stands 0.05 to 1 µM; under `NC(CNc1ncc(-c2ccc3cnccc3c2)s1)Cc1ccc(C(F)(F)F)cc1F` (stereo not drawn) [Example 177, N-(-2-amino-3-(2-fluoro-4-(trifluoromethyl)phenyl)propyl)-5-(isoquinolin-6-yl)thiazol-2-amine], under 0.05 µM.
To `N[C@H](CNc1ncc(-c2ccc3[nH]c(=O)oc3c2)s1)Cc1ccc(Cl)c(Cl)c1` [Example 115, 6-(2-((S)-2-Amino-3-(3,4-dichlorophenyl)propylamino)thiazol-5-yl)benzo[d]oxazol-2(3H)-one] belongs under 0.05 µM; to `N[C@H](CNc1ncc(-c2ccc3[nH]c(=O)sc3c2)s1)Cc1ccc(C(F)(F)F)cc1` [Example 43, 6-(2-((S)-2-amino-3-(4-(trifluoromethyl)phenyl)propylamino)thiazol-5-yl)benzo[d]thiazol-2(3H)-one], under 0.05 µM.
In turn, `Nc1n[nH]c2ccc(-c3cnc(NC[C@@H](N)Cc4ccc(C(F)(F)F)cc4)s3)cc12` [Example 50, 5-(2-((S)-2-amino-3-(4-(trifluoromethyl)phenyl)propylamino)thiazol-5-yl)-1H-indazol-3-amine] registered an IC50 of 0.05 to 1 µM.
Under `C[C@@H](c1ccc(C(F)(F)F)cc1)[C@H](N)CNc1ncc(-c2cnc3c(c2)CC(=O)N3)s1` [Example 228, 5-(2-((2S,3S)-2-amino-3-(4-(trifluoromethyl)phenyl)butylamino)thiazol-5-yl)-1H-pyrrolo[2,3-b]pyridin-2(3H)-one] stands 0.05 to 1 µM; under `N[C@H](CNc1nc(C2CCCO2)c(-c2ccc3c(c2)CC(=O)N3)s1)Cc1ccc(Cl)cc1` (stereo partly drawn) [Example 197, 5-(2-((S)-2-Amino-3-(4-chlorophenyl)propylamino)-4-(tetrahydrofuran-2-yl)thiazol-5-yl)indolin-2-one], 1 to 10 µM; under `N[C@H](CNc1nc(-c2ccccc2F)c(-c2ccc3c(c2)CC(=O)N3)s1)Cc1ccc(C(F)(F)F)cc1` [Example 107, 5-(2-((S)-2-Amino-3-(4-(trifluoromethyl)phenyl)-propylamino)-4-(2-fluorophenyl)thiazol-5-yl)indolin-2-one], 1 to 10 µM.
`N[C@@H](CNc1ncc(-c2ccc3c(c2)CC(=O)N3)s1)Cc1ccc(C(F)(F)F)cc1` [Example 137, 5-(2-((R)-2-Amino-3-(4-(trifluoromethyl)phenyl)propylamino)thiazol-5-1)indolin-2-one]: the IC50 is 0.05 to 1 µM.
Under `C/C=C/[C@@H](c1ccc(C(F)(F)F)cc1)[C@H](N)CNc1ncc(-c2ccc3cnccc3c2)s1` [Example 154, N-((2S,3S,E)-2-amino-3-(4-(trifluoromethyl)phenyl)hex-4-enyl)-5-(isoquinolin-6-yl)thiazol-2-amine] stands under 0.05 µM.
`Cn1c(=O)[nH]c2ccc(-c3sc(NC[C@@H](N)Cc4ccc(F)cc4)nc3-c3ccccc3F)cc21` [Example 250, 6-(2-((S)-2-amino-3-(4-fluorophenyl)propylamino)-4-(2-fluorophenyl)thiazol-5-yl)-1-methyl-1H-benzo[d]imidazol-2(3H)-one] registered an IC50 of 1 to 10 µM.
To `N[C@H](CNc1nc(C(F)(F)CO)c(-c2ccc3[nH]c(=O)oc3c2)s1)Cc1ccc(C(F)(F)F)cc1` [Example 135, 6-(2-((S)-2-Amino-3-(4-(trifluoromethyl)phenyl)-propylamino)-4-(1,1-difluoro-2-hydroxyethyl)thiazol-5-yl)benzo[d]oxazol-2(3H)-one] belongs 1 to 10 µM; to `NC(=O)c1ccc(-c2cnc(NC[C@@H](N)Cc3ccc(C(F)(F)F)cc3)s2)cc1` [Example 49, (S)-4-(2-(2-amino-3-(4-(trifluoromethyl)phenyl)propylamino)thiazol-5-yl)benzamide], 1 to 10 µM.
Under `N[C@H](CNc1nc(C#CCO)c(-c2ccc3[nH]c(=O)oc3c2)s1)Cc1ccc(C(F)(F)F)cc1` [Example 150, 6-(2-((S)-2-amino-3-(4-(trifluoromethyl)phenyl)propylamino)-4-(3-hydroxyprop-1-ynyl)thiazol-5-yl)benzo[d]oxazol-2(3H)-one] stands under 0.05 µM; under `COc1ccc(CC(N)CNc2ncc(-c3ccc4cnccc4c3)s2)cc1F` (stereo not drawn) [Example 131, N-(2-Amino-3-(3-fluoro-4-methoxyphenyl)propyl)-5-(isoquinolin-6-yl)thiazol-2-amine], 0.05 to 1 µM; under `N[C@H](CNc1ncc(-c2ccc3nnccc3c2)s1)Cc1ccc(C(F)(F)F)cc1` [Example 254, N—((S)-2-amino-3-(4-(trifluoromethyl)phenyl)propyl)-5-(cinnolin-6-yl)thiazol-2-amine], 0.05 to 1 µM.
Under `N[C@H](CNc1ncc(-c2ccc3c(c2)CC(=O)N3)s1)Cc1ccc(C(F)(F)F)c(O)c1` [Example 209, 5-(2-((S)-2-amino-3-(3-hydroxy-4-(trifluoromethyl)phenyl)propylamino)thiazol-5-yl)indolin-2-one] stands 0.05 to 1 µM; under `N[C@H](CNc1nc(C#CC2(O)CCC2)c(-c2ccc3cnccc3c2)s1)Cc1ccc(C(F)(F)F)cc1` [Example 142, 1-(2-(2-((S)-2-amino-3-(4-(trifluoromethyl)phenyl)propylamino)-5-(isoquinolin-6-yl)thiazol-4-yl)ethynyl)cyclobutanol], 0.05 to 1 µM.
In turn, `C[C@@H](c1ccccc1)[C@H](N)CNc1ncc(-c2ccc3[nH]c(=O)n(C)c3c2)s1` [Example 89, 6-(2-((2S,3S)-2-Amino-3-phenylbutylamino)thiazol-5-yl)-1-methyl-1H-benzo[d]imidazol-2(3H)-one] displayed an IC50 of 1 to 10 µM.
To `Cc1nc(NC[C@@H](N)Cc2ccc(C(F)(F)F)cc2)sc1-c1nc2ccncc2s1` [Example 24, N—((S)-2-amino-3-(4-(trifluoromethyl)phenyl)propyl)-4-methyl-5-(thiazolo[5,4-c]pyridin-2-yl)thiazol-2-amine] belongs 0.05 to 1 µM; to `NC(CNc1ncc(-c2ccc3c(c2)CC(=O)N3)s1)Cc1ccc(C(F)(F)F)c(F)c1` (stereo not drawn) [Example 179, 5-(2-(-2-amino-3-(3-fluoro-4-(trifluoromethyl)phenyl)propylamino)thiazol-5-yl)indolin-2-one], under 0.05 µM.
Under `N[C@H](CNc1nc(O)c(-c2ccc(F)c(F)c2)s1)Cc1ccc(Cl)cc1` [Example 80, 2-((S)-2-Amino-3-(4-chlorophenyl)propylamino)-5-(3,4-difluorophenyl)thiazol-4-ol dihydrochloride] stands 0.05 to 1 µM; under `C[C@@H](c1ccc(C(F)(F)F)cc1)[C@H](N)CNc1ncc(-c2ccc3[nH]c(=O)oc3c2)s1` [Example 109, 6-(2-((2S,3S)-2-Amino-3-(4-(trifluoromethyl)phenyl)butylamino)-thiazol-5-yl)benzo[d]oxazol-2(3H)-one], under 0.05 µM.

The values are drawn from patent US8084479B2, “Thiazole compounds and methods of use” (Amgen Inc., priority 2006, dated 2011).
